{"source": "patent US12329801B2", "about": "“Regenerative polypeptides and uses thereof” (JUVENA THERAPEUTICS, INC., priority 2021, dated 2025)", "key": {"[1]": {"test_system": "10 week old dystrophic mice (mdx)", "test": "Duchenne muscular dystrophy model, 10 week old dystrophic mice (mdx)", "assay_type": "in vivo", "settings": "150 μg/kg with 1.2 g/kg sodium butyrate subcutaneously every 24 hours", "procedure": "Between 3-6 weeks old, the skeletal muscle of mdx mice undergoes severe necrosis followed by an increase in the activation of satellite cells to promote muscle regeneration. Treatment with IGF2 fusion polypeptide described herein can improve the regeneration process and therefore muscle health. Mice were fed ad libitum and housed under controlled conditions of lighting (12-hour light/12-hour dark) and temperature (22-24° C.). Mice were allowed to acclimate for 3 days prior to the initiation of the experiment. During the acclimation period, the weight, forelimb and both limb grip strength as well as in vivo tetanic force were assessed to determine the baseline strength of each mouse. 10 week old dystrophic mice (mdx) were injected with the IGF2 fusion polypeptide with sodium butyrate subcutaneously for 14 days. At day 7, forelimb and both grip strength are measured as described in Example 4. BrdU was injected on days 12, 13 and 14. On days 13, 14 and 15, forelimb and both limb grip strength and in vivo tetanic force were tested, and an endurance test to determine max distance and max speed was performed using methods described in Example 4.\nMice were euthanized. The right tibialis anterior and gastrocnemius were collected, immersed in Tissue-TEK OCT and then flash frozen in a chilled isopentane bath precooled in liquid nitrogen and stored at −80° C. Tissue was sectioned and stained for Laminin to determine the cross sectional area (CSA) of muscle fibers, for eMyHC to measure new fiber formation and for BrdU to assess the proliferation rate. The left anterior tibialis and gastrocnemius were collected and flash frozen in liquid nitrogen for molecular analysis that include qPCR and western blot."}, "DM1 human myoblast cells": {"test_system": "DM1 human myoblast cells", "test": "Proliferation (EdU) and fusion (% eMyHC area) in DM1 human myoblast", "assay_type": "cell-based", "settings": "72 h for proliferation, fold change vs vehicle", "procedure": "FIG. 7A Bar graph of % EdU+ human myoblast (person) and FIG. 7B % area MyHC in response to IGF2. Myoblast were cultured 72 h for proliferation and 96 h for fusion in the presence of indicated factor. Mean∓S.D. Mean∓SD. Significant p-values (EdU: Vehicle˜IGF2: 6.8E-3, % eMyHC Area: Vehicle˜IGF2: 1.9E-4) (*p<0.05 by Students Two-Tailed T-test, n=3-6).\nIGF2 was tested individually for its ability to promote proliferation and/or fusion of human muscle progenitor cells from an individual with myotonic dystrophy type 1 (hMD)—a muscular dystrophy caused by mutations in the DMPK1 gene. […] After 72 or 96 hours, cells were pulsed for 2-5 hours with EdU (30 uM), ethanol fixed, stained with Hoescht 3342, immunostained for proliferation—as measured by the percent of cells staining positive for EdU (% EdU)-, and immunostained for differentiation—as measured by the increase in cellular area staining positive for embryonic myosin heavy chain (% eMyHC) relative to the negative controls, which received media and vehicle only. Wells were imaged on a Keyence BZ-100 at 4×, the images quantified in Cell Profiler, and the statistics were computed in R. Additionally, RNA was extracted from myoblast and select transcript abundances quantified by qPCR. […]"}, "human myoblast cells": {"test_system": "human myoblast cells", "test": "Human myoblast differentiation (% area eMyHC) with IGF2 and/or sodium butyrate", "assay_type": "cell-based", "procedure": "Fresh media was added every 24 hours. […], cells were pulsed for 2-5 hours with EdU (30 uM), ethanol fixed, stained with Hoescht 3342, immunostained for proliferation—as measured by the percent of cells staining positive for EdU (% EdU)-, and immunostained for differentiation—as measured by the increase in cellular area staining positive for embryonic myosin heavy chain (% eMyHC) relative to the negative controls, which received media and vehicle only. The total area of eMyHc positive cells was analyzed, and treated cells were compared to cells treated with the vehicle alone. […] Significance was determined by a p-value less than 0.05 by the one-way ANOVA Tukey Honest Significant Difference test.\nMyoblast were cultured 96 h in the presence of IGF2 at indicated dose. Fresh media and IGF2 was added every 24 h.\nFresh media was added every 24 hours.\nSignificance was determined by a p-value less than 0.05 by the one-way ANOVA Tukey Honest Significant Difference test."}, "[2]": {"test": "Backbone cleavage on expression from CHO cells (reducing SDS-PAGE, Western blot)", "set-up": "species or system Chinese Hamster", "settings": "expressed from CHO cells", "procedure": "The amino acid backbone of IGF2 is cleaved when expressed from Chinese Hamster Ovary (CHO) cells (FIG. 13A) as visualized on a reducing SDS-PAGE and Western blot (FIG. 13B). The CHO cells were grown in a 37° C. incubator with a humidified atmosphere of 8% CO2 on an orbital shaker platform with a shaking speed 125 rpm to reach 4E6 cells/mL, followed by transferring the calculated volume of cells to fresh, pre-warmed ExpiCHO™ Expression Medium in a shake flask. Incubated flasks in a 37° C. incubator with a humidified atmosphere of 8% CO2 shook on an orbital shaker platform until cultures reached a density of 4×106−6×10^6 viable cells/mL.\nAfter mixing each plasmid with 100 ul SFM in a microtube; ExpiFectamine (8 ul ×10.5=84 ul) with OptiPro medium (92 ul×10.5=966 ul) in a microtube; adding 100 ul into the plasmid tube and mix by pipetting; After 5 min, add 200 ul into each well and swirl to mix. mix enhancer (15×10.2=153 ul) with feed ([…]), add 615 ul into each well. Culture supernatant collected at intervals was spun down at low speed and high speed, then frozen at −80 deg. Aliquots were analyzed for protein concentration by nanodrop, and then an equivalent amount loaded onto 4-12% SDS-PAGE gels for molecular weight distribution analysis. […]"}}, "data": [{"substance": "IGF2: Human IGF2 amino acid sequence, SEQ ID NO: 29", "values": [{"measurement": "bothlimb grip strength", "setting": "[1]", "result": "effective at improving"}, {"measurement": "forelimb grip strength", "setting": "[1]", "result": "effective at improving"}, {"measurement": "total work", "setting": "[1]", "result": "effective at improving"}, {"measurement": "treadmill running distance", "setting": "[1]", "result": "effective at improving"}, {"measurement": "treadmill running time to exhaustion", "setting": "[1]", "result": "effective at improving"}, {"measurement": "muscle weight", "setting": "[1]; vs vehicle", "result": "effective at improving"}, {"measurement": "EdU FC", "setting": "DM1 human myoblast cells", "result": 2.18}, {"measurement": "% eMyHC", "setting": "human myoblast cells; IGF2 0.015 ug/mL alone, 96 h (FIG. 3B/3C)", "result": 10.843, "unit": "%"}, {"measurement": "% eMyHC", "setting": "human myoblast cells; IGF2 0.03 ug/mL alone, 48 hours (FIG. 4A/4B)", "result": 16.620, "unit": "%"}, {"measurement": "cleavage of the IGF2 amino acid backbone", "setting": "[2]", "result": "is cleaved"}]}]}
